Consider four compounds from patent publication US4393052A, “Antitumor anthracycline glycosides, their preparation, intermediates therefor, and compositions and use thereof” (priority 1980, dated 1983).

In brackets after ≈: the same amount, converted by molar mass. Several values for one entry are separate records, joined by “and”; a condition that tells them apart may be missing. Equal entries are not always repeated. Where two headings read alike, the source gives them in different places.

The subject of one data set is HeLa cells. Kind of data set: Activity on HeLa cells cloning efficiency in vitro. It counts as cell-based. The conditions noted are these: for ID50 / IC50: several values = separate experiments; for ID50: 1440 min; for activity on HeLa cells cloning efficiency in vitro (in words): compared with daunorubicin; for activity at 0.1 µg/mL: dose 100 ng/ml. The text has this:
Activity on HeLa cells cloning efficiency in vitro. Treatment

In the next data set the test system is P388 ascitic leukemia. The data set is described as follows: Activity against P388 ascitic leukemia. It counts as in vivo, mice. The conditions noted are these: for T/C (median survival time of treated mice/median survival time of controls) / Toxicity deaths: day 1 after tumor inoculation. The procedure:
As regards the in vivo tests, preliminary experiments were carried out on P388 ascitic leukemia.
Activity against P388 ascitic leukemia. Treatment i.p. on day
1 after tumor inoculation.
^a Median survival time of treated mice/median survival time of […]

Setting [1] is: HeLa cloning efficiency, treatment for 24 hours.
Where [2] appears, read: 2.9 mg/kg i.p., data of 3 experiments.
Where [3] appears, read: Homo sapiens, HeLa, 24 h, HeLa cloning efficiency, treatment for 24 hours, read-out: ID50 (the source's name).
Setting [4] is: Homo sapiens, HeLa, 24 h, 24 hours, read-out: % of controls.

In turn, `COc1cccc2c1C(=O)c1c(O)c3c(c(O)c1C2=O)C[C@@](O)(C(C)=O)C[C@@H]3O[C@H]1C[C@H](N)[C@H](O)[C@H](C)O1` [Daunorubicin, reference compound] registered an ID50 with HeLa cells (setting [1]) of 0.0083 µg/mL (≈ 0.0157 µM). Besides, the activity at 0.00625 µg/mL in the data set with HeLa cells (Homo sapiens, HeLa, 24 h, read-out: % of controls, dose 6.25 ng/ml, 24 hours, data of 3 experiments) turned out to be 66%. In the data set on HeLa cells (Homo sapiens, HeLa, 24 h, read-out: ID50, HeLa cloning efficiency, treatment for 24 hours), the IC50 was 0.009 µg/mL (≈ 0.0171 µM). Further, the “% of controls” value in the data set with HeLa cells (dose 3.12 ng/ml, 24 hours, data of 3 experiments) is 105% and 100% and 70%; with HeLa cells (dose 6.25 ng/ml, 24 hours, data of 3 experiments) it was 69% and 57%. Besides, the “T/C (median survival time of treated mice/median survival time of controls)” value with P388 ascitic leukemia (setting [2]) was 170% and 172% and 180%; in the data set with P388 ascitic leukemia (4.4 mg/kg i.p.), 170% and 168% and 185%; with P388 ascitic leukemia (6.6 mg/kg i.p.), 155% and 168% and 190%. Besides, the Toxicity deaths in the data set on P388 ascitic leukemia (setting [2]) was 0/10 and 0/6; in the data set with P388 ascitic leukemia (4.4 mg/kg i.p.) it was 1/10 and 0/6 and 0/10; with P388 ascitic leukemia (6.6 mg/kg i.p.), 6/10 and 5/5 and 4/10.
`C=C1[C@@H](NC(=O)C(F)(F)F)C[C@H](O[C@H]2C[C@](O)(C(C)=O)Cc3c(O)c4c(c(O)c32)C(=O)c2c(OC)cccc2C4=O)O[C@H]1C` [IV-A, 4'-deoxy-4'-C-methylene-N-trifluoroacetyl-daunorubicin] had an ID50 in the data set on HeLa cells (setting [1]) of 1.3 µg/mL (≈ 2.1 µM). In the data set on HeLa cells (setting [3]), the IC50 stood at 1.6 µg/mL (≈ 2.58 µM). Also, the activity at 0.8 µg/mL in the data set on HeLa cells (Homo sapiens, HeLa, 24 h, dose 800 ng/ml, 24 hours, read-out: % of controls) was 115%. Moreover, the activity at 3.2 µg/mL with HeLa cells (Homo sapiens, HeLa, 24 h, dose 3200 ng/ml, 24 hours, read-out: % of controls) is 7%. Besides, in the data set on HeLa cells, the “activity on HeLa cells cloning efficiency in vitro (in words)” value (“activity … in vitro (in words)” below) is “markedly less active than daunorubicin”. In addition, in the data set with HeLa cells (dose 800 ng/ml, 24 hours), the “% of controls” value is on record as 116%. In addition, the “T/C (median survival time of treated mice/median survival time of controls)” value in the data set with P388 ascitic leukemia (100 mg/kg i.p.) came to 110%; with P388 ascitic leukemia (200 mg/kg i.p.), 110%; with P388 ascitic leukemia (400 mg/kg i.p.), 130%. Further, the Toxicity deaths is 0/5 with P388 ascitic leukemia (100 mg/kg i.p.), 0/5 in the data set with P388 ascitic leukemia (200 mg/kg i.p.) and 0/3 in the data set on P388 ascitic leukemia (400 mg/kg i.p.).
With `COc1cccc2c1C(=O)c1c(O)c3c(c(O)c1C2=O)CC(O)(C(C)=O)CC3OC1CC(N)C(C)C(C)O1` (stereo not drawn) [V-B, 4'-deoxy-4'-epi-C-methyl-daunorubicin], the IC50 in the data set with HeLa cells (setting [3]) came to 0.0077 µg/mL (≈ 0.0147 µM). For the same compound, in the data set with HeLa cells (Homo sapiens, HeLa, 24 h, dose 6.2 ng/ml, 24 hours, read-out: % of controls), the activity at 0.0062 µg/mL came to 54%. Further, the activity at 0.025 µg/mL in the data set on HeLa cells (Homo sapiens, HeLa, 24 h, dose 25 ng/ml, 24 hours, read-out: % of controls) was determined as 4%. Besides, the activity at 0.1 µg/mL in the data set on HeLa cells (setting [4]) is 0%. In addition, in the data set on HeLa cells, the “activity … in vitro (in words)” value is on record as “maintained a high cytotoxic activity”. Besides, the “T/C (median survival time of treated mice/median survival time of controls)” value was found to be 130% in the data set with P388 ascitic leukemia (4.4 mg/kg i.p.), 140% in the data set with P388 ascitic leukemia (6.6 mg/kg i.p.) and 140% in the data set on P388 ascitic leukemia (10.0 mg/kg i.p.). The Toxicity deaths in the data set on P388 ascitic leukemia (4.4 mg/kg i.p.) was 0/10; in the data set on P388 ascitic leukemia (6.6 mg/kg i.p.), 0/10; in the data set with P388 ascitic leukemia (10.0 mg/kg i.p.) it was 0/9.
As to `COc1cccc2c1C(=O)c1c(O)c3c(c(O)c1C2=O)C[C@@](O)(C(C)=O)C[C@@H]3O[C@H]1C[C@H](N)[C@@](O)(CN)[C@H](C)O1` [V-C, 4'-C-aminomethyl-daunorubicin], the IC50 in the data set on HeLa cells (setting [3]) was found to be 1 µg/mL (≈ 1.8 µM). In addition, the activity at 0.1 µg/mL in the data set with HeLa cells (setting [4]) turned out to be 143%. Also, in the data set on HeLa cells (Homo sapiens, HeLa, 24 h, dose 400 ng/ml, 24 hours, read-out: % of controls), the activity at 0.4 µg/mL was found to be 141%. Moreover, the activity at 1.6 µg/mL in the data set with HeLa cells (Homo sapiens, HeLa, 24 h, dose 1600 ng/ml, 24 hours, read-out: % of controls) came to 3.8%. For the same compound, the “activity … in vitro (in words)” value in the data set with HeLa cells is on record as “markedly less active than daunorubicin”. Further, the “T/C (median survival time of treated mice/median survival time of controls)” value in the data set on P388 ascitic leukemia (50 mg/kg i.p.) was 181%; in the data set with P388 ascitic leukemia (100 mg/kg i.p.), 172%; in the data set on P388 ascitic leukemia (200 mg/kg i.p.), 204%. The figures for the Toxicity deaths with P388 ascitic leukemia (50 mg/kg i.p.), in the data set on P388 ascitic leukemia (100 mg/kg i.p.) and in the data set with P388 ascitic leukemia (200 mg/kg i.p.) were 0/6, 0/5 and 0/4, respectively. Also, in the data set with P388 ascitic leukemia (at a dose of 200 mg/kg), the “antitumor activity compared with daunorubicin (in words)” value was “more active than daunorubicin”.
